According to patent US20220110325A1, “PESTICIDALLY ACTIVE AZOLE-AMIDE COMPOUNDS” (SYNGENTA CROP PROTECTION AG, priority 2019, published 2022):

Tests used:
Type in all cases: in vivo
[1] = system: Chilo suppressalis (Striped Rice Stemborer); test: Chilo suppressalis (striped rice stemborer), artificial diet; conditions: 144 h, application rate of 200 ppm, L2 larvae, 6 days after infestation, read-out: control in at least one of the three categories (mortality, anti-feeding or growth inhibition)
Procedure: Example 14: Chilo suppressalis (Striped Rice Stemborer)
24-well microtiter plates with artificial diet were treated with aqueous test solutions prepared from 10,000 ppm DMSO stock solutions by pipetting. After drying, the plates were infested with L2 larvae (6-8 per well). The samples were assessed for mortality, anti-feeding effect, and growth inhibition in comparison to untreated samples 6 days after infestation. Control of Chilo suppressalis by a test sample is given when at least one of the categories mortality, anti-feedant effect, and growth inhibition is higher than the untreated sample.

[2] = system: Myzus persicae (Green Peach Aphid); test: Myzus persicae (green peach aphid), intrinsic activity; conditions: 120 h, test rate of 12 ppm, sucrose solution through Parafilm, 5 days after infestation
Excerpt: Example B8: Myzus persicae (Green Peach Aphid). Intrinsic Activity
Test compounds prepared from 10,000 ppm DMSO stock solutions were applied by pipette into 24-well microtiter plates and mixed with sucrose solution. The plates were closed with a stretched Parafilm. A plastic stencil with 24 holes was placed onto the plate and infested pea seedlings were placed directly on the Parafilm. The infested plate was closed with a gel blotting paper and another plastic stencil and then turned upside down. The samples were assessed for mortality 5 days after infestation.

[3] = system: Diabrotica balteata (corn root worm); test: Diabrotica balteata (corn root worm), sprayed maize sprouts; conditions: 96 h, application rate of 200 ppm, L2 larvae, 4 days after infestation, read-out: control in at least one of the two categories (mortality or growth inhibition)
Procedure: Example B2: Diabrotica Balteata (Corn Root Worm)
Maize sprouts placed onto an agar layer in 24-well microtiter plates were treated with aqueous test solutions prepared from 10,000 ppm DMSO stock solutions by spraying. After drying, the plates were infested with L2 larvae (6 to 10 per well). The samples were assessed for mortality and growth inhibition in comparison to untreated samples 4 days after infestation.

[4] = system: Plutella xylostella (Diamond Back Moth); test: Plutella xylostella (diamond back moth), artificial diet, eggs, 24-well; conditions: 192 h, application rate of 200 ppm, eggs on artificial diet, 8 days after infestation, read-out: control in at least one of the two categories (mortality or growth inhibition)
Procedure: Example B5: Plutella xylostella (Diamond Back Moth)
24-well microtiter plates with artificial diet were treated with aqueous test solutions prepared from 10,000 ppm DMSO stock solutions by pipetting. After drying, Plutella eggs were pipetted through a plastic stencil onto a gel blotting paper and the plate was closed with it. The samples were assessed for mortality and growth inhibition in comparison to untreated samples 8 days after infestation.

[5] = system: Spodoptera littoralis (Egyptian Cotton Leaf Worm); test: Spodoptera littoralis (Egyptian cotton leaf worm), sprayed cotton leaf discs; conditions: foliar, 72 h, application rate of 200 ppm, L1 larvae, 3 days after infestation, read-out: control in at least one of the three categories (mortality, anti-feeding, or growth inhibition)
Procedure: Example B10: Spodoptera littoralis (Egyptian Cotton Leaf Worm)
Cotton leaf discs were placed onto agar in 24-well microtiter plates and sprayed with aqueous test solutions prepared from 10,000 ppm DMSO stock solutions. After drying the leaf discs were infested with five L1 larvae. The samples were assessed for mortality, anti-feeding effect, and growth inhibition in comparison to untreated samples 3 days after infestation. Control of Spodoptera littoralis by a test sample is given when at least one of the categories mortality, anti-feedant effect, and growth inhibition is higher than the untreated sample.

[6] = system: Euschistus heros (Neotropical Brown Stink Bug); test: Euschistus heros (neotropical brown stink bug), sprayed soybean leaves; conditions: 120 h, application rate of 200 ppm, N2 nymphs, 5 days after infestation, read-out: control in at least one of the two categories (mortality or growth inhibition)
Procedure: Example B3: Euschistus heros(Neotropical Brown Stink Bug)
Soybean leaves on agar in 24-well microtiter plates were sprayed with aqueous test solutions prepared from 10,000 ppm DMSO stock solutions. After drying the leaves were infested with N2 nymphs. The samples were assessed for mortality and growth inhibition in comparison to untreated samples 5 days after infestation.

[7] = system: Plutella xylostella (Diamondback Moth); test: Plutella xylostella (diamondback moth), 96-well artificial diet, eggs; conditions: 216 h, application rate of 500 ppm, eggs/L1 larvae, 9 days after infestation
Procedure: Example B13: Plutella xylostella (Diamondback Moth)
96-well microtiter plates containing artificial diet were treated with aqueous test solutions, prepared from 10,000 ppm DMSO stock solutions, by a liquid handling robot. After drying, eggs (˜30 per well) were infested onto a netted lid which was suspended above the diet. The eggs hatch and L1 larvae move down to the diet. The samples were assessed for mortality 9 days after infestation.

[8] = system: Tetranychus urticae (Two-Spotted Spider Mite); test: Tetranychus urticae (two-spotted spider mite), feeding/contact activity; conditions: 192 h
Procedure: Example B11: Tetranychus urticae (Two-Spotted Spider Mite):Feeding/Contact Activity
Bean leaf discs on agar in 24-well microtiter plates were sprayed with aqueous test solutions prepared from 10,000 ppm DMSO stock solutions. After drying the leaf discs were infested with a mite population of mixed ages. The samples were assessed for mortality on mixed population (mobile stages) 8 days after infestation.

CC(NC(=O)c1cc(C(F)(F)F)cc(C(F)(F)F)c1)c1ncnn1-c1ncc(OC(F)F)cn1 (stereo not drawn) [Compound P3, N-[1-[2-[5-(difluoromethoxy)pyrimidin-2-yl]-1,2,4-triazol-3-yl]ethyl]-3,5-bis(trifluoromethyl) benzamide]
≥ 80%: percent control (mortality, anti-feedant effect or growth inhibition) at 200 ppm [1] | mortality at 12 ppm [2] | percent control (mortality or growth inhibition) at 200 ppm [3] | percent control (mortality or growth inhibition) at 200 ppm [4] | percent control (mortality, anti-feeding or growth inhibition) at 200 ppm [5] | percent control (mortality or growth inhibition) at 200 ppm [6]

CC(NC(=O)c1cc(C(F)(F)F)cc(C(F)(F)F)c1)c1ncnn1-c1ncc(OCC(F)(F)F)cn1 (stereo not drawn) [Compound P4, N-[1-[2-[5-(2,2,2-trifluoroethoxy)pyrimidin-2-yl]-1,2,4-triazol-3-yl]ethyl]-3,5-bis(trifluoromethyl) benzamide]
≥ 80%: percent control (mortality, anti-feedant effect or growth inhibition) at 200 ppm [1] | percent control (mortality or growth inhibition) at 200 ppm [3] | percent control (mortality or growth inhibition) at 200 ppm [4] | percent control (mortality, anti-feeding or growth inhibition) at 200 ppm [5]

CC(NC(=O)c1cc(C(F)(F)F)cc(C(F)(F)F)c1)c1ncnn1-c1ncc(OCC(F)F)cn1 (stereo not drawn) [Compound P5, N-[1-[2-[5-(2,2-difluoroethoxy)pyrimidin-2-yl]-1,2,4-triazol-3-yl]ethyl]-3,5-bis(trifluoromethyl) benzamide]
≥ 80%: percent control (mortality, anti-feedant effect or growth inhibition) at 200 ppm [1] | percent control (mortality or growth inhibition) at 200 ppm [3] | percent control (mortality or growth inhibition) at 200 ppm [4] | percent control (mortality, anti-feeding or growth inhibition) at 200 ppm [5] | percent control (mortality or growth inhibition) at 200 ppm [6]

CC(NC(=O)c1cc(C(F)(F)F)cc(C(F)(F)F)c1)c1ncnn1-c1ccc(OC(F)(F)F)cn1 (stereo not drawn) [Compound P6, N-[1-[2-[5-(trifluoromethoxy)-2-pyridyl]-1,2,4-triazol-3-yl]ethyl]-3,5-bis(trifluoromethyl) benzamide]
≥ 80%: percent control (mortality, anti-feedant effect or growth inhibition) at 200 ppm [1] | percent control (mortality or growth inhibition) at 200 ppm [3] | percent control (mortality or growth inhibition) at 200 ppm [4] | mortality at 500 ppm [7] | percent control (mortality, anti-feeding or growth inhibition) at 200 ppm [5] | percent control (mortality or growth inhibition) at 200 ppm [6] | mortality at 200 ppm [8]

C[C@H](NC(=O)c1cc(C(F)(F)F)cc(C(F)(F)F)c1)c1ncnn1-c1ncc(OC(F)(F)F)cn1 [Compound P7, N-[(1S)-1-[2-[5-(trifluoromethoxy)pyrimidin-2-yl]-1,2,4-triazol-3-yl]ethyl]-3,5-bis(trifluoromethyl) benzamide]
≥ 80%: percent control (mortality or growth inhibition) at 200 ppm [3] | percent control (mortality or growth inhibition) at 200 ppm [4] | percent control (mortality, anti-feeding or growth inhibition) at 200 ppm [5]

CC(NC(=O)c1cc(C(F)(F)F)cc(C(F)(F)F)c1)c1ncnn1-c1ccc(OCC(F)(F)F)cn1 (stereo not drawn) [Compound P8, N-[1-[2-[5-(2,2,2-trifluoroethoxy)-2-pyridyl]-1,2,4-triazol-3-yl]ethyl]-3,5-bis(trifluoromethyl)benzamide]
≥ 80%: percent control (mortality, anti-feedant effect or growth inhibition) at 200 ppm [1] | percent control (mortality or growth inhibition) at 200 ppm [3] | percent control (mortality or growth inhibition) at 200 ppm [4] | percent control (mortality, anti-feeding or growth inhibition) at 200 ppm [5]

CC(NC(=O)c1cc(C(F)(F)F)cc(C(F)(F)F)c1)c1ncnn1-c1ccc(OCC(F)F)cn1 (stereo not drawn) [Compound P9, N-[1-[2-[5-(2,2-difluoroethoxy)-2-pyridyl]-1,2,4-triazol-3-yl]ethyl]-3,5-bis(trifluoromethyl) benzamide]
≥ 80%: percent control (mortality, anti-feedant effect or growth inhibition) at 200 ppm [1] | percent control (mortality or growth inhibition) at 200 ppm [3] | percent control (mortality or growth inhibition) at 200 ppm [4] | percent control (mortality, anti-feeding or growth inhibition) at 200 ppm [5]

CC(NC(=O)c1cc(C(F)(F)F)cc(C(F)(F)F)c1)c1ncnn1-c1ccc(O/C=C\C(F)(F)F)cn1 (stereo not drawn) [Compound P10, 3,5-bis(trifluoromethyl)-N-[1-[2-[5-[(Z)-3,3,3-trifluoroprop-1-enoxy]-2-pyridyl]-1,2,4-triazol-3-yl]ethyl]benzamide]
≥ 80%: percent control (mortality, anti-feedant effect or growth inhibition) at 200 ppm [1] | percent control (mortality or growth inhibition) at 200 ppm [4] | mortality at 500 ppm [7]

CC(NC(=O)c1cc(C(F)(F)F)cc(C(F)(F)F)c1)c1ncnn1-c1ccc(OC(F)F)cn1 (stereo not drawn) [Compound P11, N-[1-[2-[5-(difluoromethoxy)-2-pyridyl]-1,2,4-triazol-3-yl]ethyl]-3,5-bis(trifluoromethyl) benzamide]
≥ 80%: percent control (mortality, anti-feedant effect or growth inhibition) at 200 ppm [1] | percent control (mortality or growth inhibition) at 200 ppm [3] | percent control (mortality or growth inhibition) at 200 ppm [4] | mortality at 500 ppm [7] | percent control (mortality, anti-feeding or growth inhibition) at 200 ppm [5]

CC(NC(=O)c1cc(OCC(F)F)cc(C(F)(F)F)c1)c1ncnn1-c1ncc(OC(F)F)cn1 (stereo not drawn) [Compound P12, 3-(2,2-difluoroethoxy)-N-[1-[2-[5-(difluoromethoxy)pyrimidin-2-yl]-1,2,4-triazol-3-yl]ethyl]-5-(trifluoromethyl) benzamide]
≥ 80%: percent control (mortality, anti-feedant effect or growth inhibition) at 200 ppm [1] | mortality at 12 ppm [2] | percent control (mortality or growth inhibition) at 200 ppm [4] | percent control (mortality, anti-feeding or growth inhibition) at 200 ppm [5]
